Source: ChEMBL document CHEMBL1201862, “PubChem BioAssay data set” (2004)
Active and inactive are the calls of the source.

Tests used:
[1] = biological target: Troponin, cardiac muscle (Homo sapiens, UniProt P19429+P45379+P63316); experiment: Fluorescence-based biochemical high throughput dose response assay for activators of the calcium sensitivity of cardiac Regulated Thin Filaments (RTF). [Related pubchem assays (depositor defined):AID493008, AID493018, AID504382, AID504383]; assay type: protein-complex assay
[2] = system: HeLa; experiment: HeLa cell cytotoxicity, dose response, cytotoxicity control, 24 h, cherry-picked samples (AID 504726); assay type: functional, cell-based; details: Homo sapiens;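 further: potency for cytotoxicity as loss of luminescence signal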
[3] = system: CHO; experiment: cytotoxicity in TLR9-MyD88 CHO cells, dose response, cytotoxicity control for TLR9-MyD88 binding inhibitor project, cell-based, luminescence (AID 588339); assay type: functional, hamster; details: Cricetulus griseus;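 further: CHO cells stably coexpressing TLR9 and MyD88 fusions from primary screen; compound exposure lasted 48 hours before viability readout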
[4] = biological target: Beta Lactamase (Pseudomonas aeruginosa, UniProt Q932Y6); experiment: beta-lactamase reporter inhibitor potency, dose response, artefact control for TLR9-MyD88 binding inhibitor project, BLA reporter cells, FRET fluorescence (AID 588341); assay type: cell-based;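 further: cell based assay in CHO-K1 cells stably expressing beta-lactamase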
[5] = biological target: T1, Caspase-3 (Homo sapiens, UniProt P42574); experiment: SAR Analysis of small molecule inhibitors of Sentrin-specific proteases (SENPs) using a Caspase-3 Selectivity assay. [Related pubchem assays (depositor defined):AID2540, AID2599, AID434973, AID489001]; assay type: functional
T1 sequence (P42574 whole entry): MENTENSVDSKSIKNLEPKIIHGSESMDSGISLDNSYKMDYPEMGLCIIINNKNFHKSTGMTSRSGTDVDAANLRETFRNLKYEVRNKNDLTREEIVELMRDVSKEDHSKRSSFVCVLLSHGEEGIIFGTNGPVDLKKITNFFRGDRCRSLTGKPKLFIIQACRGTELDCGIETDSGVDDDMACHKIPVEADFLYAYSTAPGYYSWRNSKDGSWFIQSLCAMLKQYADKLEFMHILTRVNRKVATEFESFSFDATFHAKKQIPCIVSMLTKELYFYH

[6] = biological target: T2, Sentrin-specific protease 8 (Homo sapiens, UniProt Q96LD8); experiment: SENP8 protease inhibitors, SAR follow-up, biochemical, luminescence (AID 504501); assay type: functional
T2 sequence (Q96LD8 whole entry): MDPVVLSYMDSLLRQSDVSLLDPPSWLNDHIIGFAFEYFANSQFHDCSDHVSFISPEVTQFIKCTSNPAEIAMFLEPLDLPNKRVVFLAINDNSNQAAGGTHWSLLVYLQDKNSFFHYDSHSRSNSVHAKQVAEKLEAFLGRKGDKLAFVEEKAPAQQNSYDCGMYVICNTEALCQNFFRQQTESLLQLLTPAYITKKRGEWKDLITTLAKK

[7] = biological target: T3, Sentrin-specific protease 7 (Homo sapiens, UniProt Q9BQF6); experiment: SENP7 protease inhibitors, SAR follow-up, biochemical, luminescence (AID 504497); assay type: functional
T3 sequence (Q9BQF6 whole entry): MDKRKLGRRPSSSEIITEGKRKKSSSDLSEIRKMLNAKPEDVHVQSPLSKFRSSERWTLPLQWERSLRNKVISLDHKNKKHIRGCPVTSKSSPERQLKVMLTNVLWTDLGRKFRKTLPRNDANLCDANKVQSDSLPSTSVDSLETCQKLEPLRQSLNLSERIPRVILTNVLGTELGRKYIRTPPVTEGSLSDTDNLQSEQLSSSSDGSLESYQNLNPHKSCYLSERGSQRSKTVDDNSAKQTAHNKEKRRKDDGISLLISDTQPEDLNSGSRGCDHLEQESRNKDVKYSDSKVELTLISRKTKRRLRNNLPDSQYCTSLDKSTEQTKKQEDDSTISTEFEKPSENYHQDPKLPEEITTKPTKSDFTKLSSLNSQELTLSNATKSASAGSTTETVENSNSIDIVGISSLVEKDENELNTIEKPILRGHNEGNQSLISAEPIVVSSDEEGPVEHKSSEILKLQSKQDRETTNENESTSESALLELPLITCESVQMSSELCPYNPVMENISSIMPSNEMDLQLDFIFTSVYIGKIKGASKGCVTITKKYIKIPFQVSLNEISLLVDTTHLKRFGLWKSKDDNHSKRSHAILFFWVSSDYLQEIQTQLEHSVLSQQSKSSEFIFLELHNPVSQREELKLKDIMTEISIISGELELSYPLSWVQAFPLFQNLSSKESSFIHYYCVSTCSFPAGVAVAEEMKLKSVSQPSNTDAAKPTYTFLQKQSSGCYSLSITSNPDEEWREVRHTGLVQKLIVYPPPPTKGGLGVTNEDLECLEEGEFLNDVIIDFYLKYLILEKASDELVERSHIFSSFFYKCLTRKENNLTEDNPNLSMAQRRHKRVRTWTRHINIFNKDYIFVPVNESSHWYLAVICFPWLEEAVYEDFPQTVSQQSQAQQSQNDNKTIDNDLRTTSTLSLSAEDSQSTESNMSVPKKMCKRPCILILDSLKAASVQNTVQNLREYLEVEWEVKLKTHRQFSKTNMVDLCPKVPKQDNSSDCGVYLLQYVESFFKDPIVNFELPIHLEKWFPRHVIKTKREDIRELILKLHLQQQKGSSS

[8] = biological target: T4, Sentrin-specific protease 6 (Homo sapiens, UniProt Q9GZR1); experiment: SAR Analysis of small molecule inhibitors of Sentrin-specific protease 6 (SENP6) using a Luminescent assay. [Related pubchem assays (depositor defined):AID2582, AID2599]; assay type: functional
T4 sequence (Q9GZR1 whole entry): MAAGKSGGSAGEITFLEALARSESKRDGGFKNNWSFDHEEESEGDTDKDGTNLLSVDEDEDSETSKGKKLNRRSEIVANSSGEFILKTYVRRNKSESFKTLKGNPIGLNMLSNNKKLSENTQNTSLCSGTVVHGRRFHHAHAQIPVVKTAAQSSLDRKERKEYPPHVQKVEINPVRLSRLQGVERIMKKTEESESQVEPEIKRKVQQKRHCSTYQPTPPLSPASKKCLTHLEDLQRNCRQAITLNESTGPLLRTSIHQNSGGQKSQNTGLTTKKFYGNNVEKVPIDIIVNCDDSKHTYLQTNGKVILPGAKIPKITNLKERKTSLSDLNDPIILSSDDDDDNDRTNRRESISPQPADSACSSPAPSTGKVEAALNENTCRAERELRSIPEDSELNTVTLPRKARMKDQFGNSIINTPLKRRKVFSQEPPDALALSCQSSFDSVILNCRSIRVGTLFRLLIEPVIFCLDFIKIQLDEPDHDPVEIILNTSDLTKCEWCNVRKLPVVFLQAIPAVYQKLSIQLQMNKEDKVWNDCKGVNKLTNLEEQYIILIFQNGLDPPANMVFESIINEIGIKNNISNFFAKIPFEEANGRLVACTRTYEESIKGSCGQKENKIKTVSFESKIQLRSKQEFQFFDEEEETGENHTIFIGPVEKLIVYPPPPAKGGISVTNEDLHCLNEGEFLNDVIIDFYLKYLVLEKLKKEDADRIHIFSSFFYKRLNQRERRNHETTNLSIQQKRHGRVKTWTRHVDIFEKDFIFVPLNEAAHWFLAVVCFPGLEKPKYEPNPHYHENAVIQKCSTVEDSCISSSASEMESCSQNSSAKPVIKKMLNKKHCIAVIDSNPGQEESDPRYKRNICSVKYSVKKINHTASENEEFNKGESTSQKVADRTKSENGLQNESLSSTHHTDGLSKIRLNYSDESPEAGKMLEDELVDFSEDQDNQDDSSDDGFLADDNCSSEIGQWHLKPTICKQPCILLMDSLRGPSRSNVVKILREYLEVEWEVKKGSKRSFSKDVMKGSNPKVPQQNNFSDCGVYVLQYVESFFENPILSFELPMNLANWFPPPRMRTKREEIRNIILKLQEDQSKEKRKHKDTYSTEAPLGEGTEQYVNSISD

[9] = biological target: T5, COUP transcription factor 2 (Homo sapiens, UniProt P24468); experiment: Luminescence-based cell-based high throughput dose response assay to identify inhibitors of COUP-TFII (NR2F2).; assay type: functional;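 further: HEK293 cells transiently cotransfected with COUP-TFII expression vector and reporter; luciferase reporter luminescence driven by COUP-TFII from the pX2-168 reporter plasmid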
T5 sequence (P24468 whole entry): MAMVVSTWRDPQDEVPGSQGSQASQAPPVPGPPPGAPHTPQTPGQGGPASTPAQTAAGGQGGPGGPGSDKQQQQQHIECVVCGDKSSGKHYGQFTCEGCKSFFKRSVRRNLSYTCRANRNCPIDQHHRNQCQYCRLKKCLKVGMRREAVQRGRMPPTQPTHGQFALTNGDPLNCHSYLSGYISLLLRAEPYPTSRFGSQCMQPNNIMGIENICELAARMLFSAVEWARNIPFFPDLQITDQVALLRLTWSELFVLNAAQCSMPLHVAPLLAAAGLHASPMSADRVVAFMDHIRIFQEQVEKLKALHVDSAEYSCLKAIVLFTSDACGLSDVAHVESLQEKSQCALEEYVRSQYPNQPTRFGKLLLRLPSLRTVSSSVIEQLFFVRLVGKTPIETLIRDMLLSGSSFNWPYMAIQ

[10] = NIH-3T3 fibroblast cytotoxicity, dose response, cytotoxicity control, cell-based, fluorescence, Alamar Blue, secondary assay (AID 2327); assay type: functional;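 further: NIH-3T3 mouse fibroblasts cultured with fluconazole at 8 µg/mL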
[11] = C. albicans growth with fluconazole, confirmation, fluorescence, retest (AID 2467); assay type: functional, cell-based
[12] = biological target: ATP-dependent molecular chaperone HSP82 (Candida albicans (strain WO-1) (Yeast), UniProt C4YTQ8); experiment: loss of DOC-induced GRE-beta-galactosidase reporter signal, dose response, Hsp90 inhibitor project, S. cerevisiae, luminescence (AID 2400); assay type: functional, cell-based;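 further: beta-galactosidase luminescence from glucocorticoid response element reporter as proxy for Hsp90 function; inhibitor potency where signal loss means Hsp90 inhibition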
[13] = system: Streptococcus; experiment: Group A Streptococcus viability loss, dose response, counter-screen for streptokinase expression inhibitor project, luminescence, BacTiterGlo (AID 1915); assay type: functional, organism-based;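 further: potency for reduction of bacterial viability or growth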
[14] = biological target: T6, Streptokinase A (Streptococcus pyogenes serotype M1, UniProt P10520); experiment: S. pyogenes streptokinase expression inhibitors, potency, dose response, plasminogen activation absorbance, OD405 (AID 1914); assay type: functional, Streptococcus pyogenes M1 GAS;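 further: secreted streptokinase activity via plasminogen activation per viability signal from cell pellet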
T6 sequence (P10520 whole entry): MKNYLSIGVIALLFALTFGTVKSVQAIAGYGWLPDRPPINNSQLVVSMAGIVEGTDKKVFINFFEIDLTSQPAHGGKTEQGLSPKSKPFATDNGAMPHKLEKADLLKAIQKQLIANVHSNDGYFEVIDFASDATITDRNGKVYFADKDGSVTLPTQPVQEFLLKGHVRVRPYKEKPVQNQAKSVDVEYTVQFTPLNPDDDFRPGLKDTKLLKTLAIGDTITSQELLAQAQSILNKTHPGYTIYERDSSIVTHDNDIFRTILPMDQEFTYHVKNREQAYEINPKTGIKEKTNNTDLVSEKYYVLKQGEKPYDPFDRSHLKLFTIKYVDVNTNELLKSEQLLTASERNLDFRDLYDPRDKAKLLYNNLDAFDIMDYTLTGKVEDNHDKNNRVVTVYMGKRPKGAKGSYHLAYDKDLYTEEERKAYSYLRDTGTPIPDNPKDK

[15] = system: Streptococcus sp. 'group A'; experiment: growth inhibition of control SK(-) GAS strain, dose response, counter-screen for streptokinase expression inhibitor project, luminescence, kanamycin, BacTiterGlo, confirmation (AID 1900); assay type: functional, organism-based
[16] = biological target: Serine/threonine-protein phosphatase (Candida dubliniensis (strain CD36 / CBS 7987 / NCPF 3949 / NRRLY-17841) (Yeast), UniProt B9W6M3); experiment: calcineurin pathway inhibitors in yeast reporter, dose response, S. cerevisiae, CDRE-lacZ, luminescence, secondary (AID 2388); assay type: functional, cell-based;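 further: yeast reporter cells carrying a calcineurin-responsive lacZ construct stimulated with calcium chloride; luminescent beta-galactosidase reporter signal in whole cells rather than isolated phosphatase activity; potency for inhibition where a drop in reporter signal means calcineurin blockade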
[17] = Luminescence Cell-Based Dose Response HTS to Identify Inhibitors of 5'UTR Stem-Loop Driven Prion Protein mRNA Translation in H4 Neuroglioblastoma Cells. [Related pubchem assays: 1827 (Project Summary), 1813 (Primary HTS)]; assay type: functional
[18] = inhibitors of SNCA 5'UTR-driven reporter translation, confirmation, H4 neuroglioma cells, luminescence (AID 1988); assay type: functional, cell-based
[19] = inhibitors of firefly luciferase expression or activity, dose response, H4 neuroglioma cells, luminescence (AID 1990); assay type: functional, cell-based
[20] = control 3'UTR Renilla luciferase suppression, dose response, counter-screen for Shn3 inhibitor project, cell-based, Clone20-Shn3RL, cherry-picked (AID 624133); assay type: functional
[21] = biological target: T7, Galanin receptor type 3 (Homo sapiens, UniProt O60755); experiment: Fluorescence-based cell-based primary high throughput dose response assay to identify antagonists of the Galanin Receptor 3 (GalR3).; assay type: functional
T7 sequence (O60755 whole entry): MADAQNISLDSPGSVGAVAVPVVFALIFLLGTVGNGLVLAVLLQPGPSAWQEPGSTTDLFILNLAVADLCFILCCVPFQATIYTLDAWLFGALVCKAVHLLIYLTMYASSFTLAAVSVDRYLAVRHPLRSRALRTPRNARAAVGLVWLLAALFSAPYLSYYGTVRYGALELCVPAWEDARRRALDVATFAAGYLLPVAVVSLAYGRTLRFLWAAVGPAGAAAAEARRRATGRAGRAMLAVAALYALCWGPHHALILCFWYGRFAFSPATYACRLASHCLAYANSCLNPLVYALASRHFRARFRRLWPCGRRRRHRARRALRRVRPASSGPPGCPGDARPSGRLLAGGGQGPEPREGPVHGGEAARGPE

[22] = cells; assay type: functional, cell-based; details: HEK-CNG

Serine/threonine-protein phosphatase, sequence (B9W6M3 whole entry): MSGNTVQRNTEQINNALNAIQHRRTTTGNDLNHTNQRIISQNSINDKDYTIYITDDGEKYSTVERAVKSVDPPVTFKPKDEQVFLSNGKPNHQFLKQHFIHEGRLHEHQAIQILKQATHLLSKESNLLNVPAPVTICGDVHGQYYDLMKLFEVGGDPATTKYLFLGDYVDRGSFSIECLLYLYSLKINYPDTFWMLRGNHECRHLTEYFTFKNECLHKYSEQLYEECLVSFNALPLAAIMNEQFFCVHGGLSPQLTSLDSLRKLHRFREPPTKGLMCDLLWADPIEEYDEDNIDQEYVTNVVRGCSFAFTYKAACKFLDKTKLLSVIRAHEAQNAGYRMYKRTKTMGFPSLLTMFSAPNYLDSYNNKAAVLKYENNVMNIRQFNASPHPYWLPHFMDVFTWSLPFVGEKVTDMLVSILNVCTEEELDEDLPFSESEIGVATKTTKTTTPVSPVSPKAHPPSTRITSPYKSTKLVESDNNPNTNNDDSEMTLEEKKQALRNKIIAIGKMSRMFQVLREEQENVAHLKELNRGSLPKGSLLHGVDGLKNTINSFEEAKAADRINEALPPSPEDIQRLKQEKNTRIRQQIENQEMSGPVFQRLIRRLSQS
ATP-dependent molecular chaperone HSP82, sequence (C4YTQ8 whole entry): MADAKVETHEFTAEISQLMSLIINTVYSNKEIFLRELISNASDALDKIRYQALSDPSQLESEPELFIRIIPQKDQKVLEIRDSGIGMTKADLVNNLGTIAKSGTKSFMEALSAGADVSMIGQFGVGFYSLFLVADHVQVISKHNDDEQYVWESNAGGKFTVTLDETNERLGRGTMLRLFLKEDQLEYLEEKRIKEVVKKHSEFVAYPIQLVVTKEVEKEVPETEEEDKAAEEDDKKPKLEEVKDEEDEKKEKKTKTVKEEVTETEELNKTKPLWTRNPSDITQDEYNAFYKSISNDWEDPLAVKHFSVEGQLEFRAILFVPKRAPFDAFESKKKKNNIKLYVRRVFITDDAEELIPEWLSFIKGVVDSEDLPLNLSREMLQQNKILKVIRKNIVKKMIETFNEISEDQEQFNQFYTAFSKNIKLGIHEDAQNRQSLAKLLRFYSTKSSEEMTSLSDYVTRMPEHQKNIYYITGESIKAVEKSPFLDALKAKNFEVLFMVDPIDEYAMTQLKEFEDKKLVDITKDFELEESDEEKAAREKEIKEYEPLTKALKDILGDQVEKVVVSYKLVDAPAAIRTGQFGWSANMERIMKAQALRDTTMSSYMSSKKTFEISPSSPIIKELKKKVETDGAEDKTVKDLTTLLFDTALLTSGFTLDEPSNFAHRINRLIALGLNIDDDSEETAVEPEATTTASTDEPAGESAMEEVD
Beta Lactamase, sequence (Q932Y6 whole entry): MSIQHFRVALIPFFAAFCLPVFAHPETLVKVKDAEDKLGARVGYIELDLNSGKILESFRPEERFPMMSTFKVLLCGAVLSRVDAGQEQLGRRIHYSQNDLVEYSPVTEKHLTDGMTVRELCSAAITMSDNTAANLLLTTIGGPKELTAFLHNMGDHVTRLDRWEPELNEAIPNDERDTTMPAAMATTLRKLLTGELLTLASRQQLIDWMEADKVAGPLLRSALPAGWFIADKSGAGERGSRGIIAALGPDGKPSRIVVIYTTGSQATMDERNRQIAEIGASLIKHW

O=C1c2cccc3c(N4CCCCC4)ccc(c23)C(=O)N1c1cccc(O)c1
inactive: IC50 [3] > 49.7 µM
active: EC50 [1] 1.83 µM | AC50 [2] 81.5 µM | IC50 [4] 5.24 µM

Cc1ccc(Cl)c2sc(NC(=O)c3ccc(S(=O)(=O)N4CC(C)CC(C)C4)cc3)nc12 (stereo unspecified)
inactive: IC50 [5] > 99 µM | IC50 [6] > 99 µM | IC50 [7] > 99 µM | IC50 [8] > 99 µM

Cc1cccc(-c2nc(/C=C/c3ccc(F)cc3)no2)c1
inactive: IC50 [5] > 99 µM | IC50 [6] > 99 µM | IC50 [7] > 99 µM | IC50 [8] > 99 µM

CC(C)(C)c1ccc(CSc2cnn(C(C)(C)C)c(=O)c2Cl)cc1 [PYRIDABEN]
inactive: EC50 [12] > 160 µM | EC50 [16] > 180 µM | EC50 [22] > 29.9 µM
active: IC50 [9] 0.0619 µM | EC50 [10] 103 µM | EC50 [11] 0.211 µM | EC50 [13] 123 µM | EC50 [14] 20.8 µM | EC50 [15] 4.13 µM | AC50 [20] < 0.26 µM | IC50 [21] 0.00657 µM
> 120 µM (not active): EC50 [17] | EC50 [18] | EC50 [19]
